# Source: patent publication US10358435B2, “Triazolyl pyrimidinone compounds as PDE2 inhibitors” (Merck Sharp & Dohme Corp., priority 2015, dated 2019)
# pKi: −log10 of the molar value.
# Biological target: human PDE2A1 (Homo sapiens (Human), UniProt O00408)
# Assay: IMAP fluorescence polarization assay, human PDE2A1 (PDE selectivity panel)
# Type: biochemical
# Settings: not given
# Experimental: The activity of the compounds in accordance with the present invention as PDE2 inhibitors may be readily determined using a fluorescence polarization (FP) methodology (Huang, W., et al., J. Biomol Screen, 2002, 7: 215).
# Dose-inhibition profiles for each compound were characterized by fitting the mP data to a four-parameter equation given below.
# Selectivity for PDE2, as compared to other PDE families, was assessed using the IMAP® technology. Human PDE10A2 enzyme was prepared from cytosolic fractions of transiently transfected HEK cells. All other PDE's were GST Tag human enzyme expressed in insect cells and were obtained from BPS Bioscience (San Diego, Calif.): PDE1A (Cat#60010), human PDE2A1 (Cat#60020), PDE3A (Cat#60030), PDE4A1A (Cat#60040), PDE5A1 (Cat#60050), PDE6C (Cat#60060), PDE7A (Cat#60070), PDE8A1 (Cat#60080), PDE9A2 (Cat#60090), PDE11A4 (Cat#60110).
# Assays for PDE 1 through 11 were performed in parallel at room temperature in 384-well microtiter plates with an incubation volume of 20.2 μL. Solutions of test compounds were prepared in DMSO and serially diluted with DMSO to yield 30 μL of each of ten solutions differing by 3-fold in concentration, at 32 serial dilutions per plate. […] A Labcyte POD 810 (Labcyte, Sunnyvale, Calif.) was used to dispense 200 nL from each well of the titration plate to make eleven copies of the assay plate for each titration, one copy for each PDE enzyme. A solution of each enzyme (dilution from aliquots, sufficient to produce 20% substrate conversion) and a separate solution of FAM-labeled cAMP or FAM-labeled cGMP from Molecular Devices (Sunnyvale, Calif., product # R7506 or cGMP#R7508), at a final concentration of 50 nM were made in the assay buffer (10 mM Tris HCl, pH 7.2, 10 mM MgCl2, 0.05% NaN3 0.01% Tween-20, and 1 mM DTT). Note that the substrate for PDE2 is 50 nM FAM cAMP containing 1000 nM of cGMP. The enzyme and the substrate were then added to the assay plates in two consecutive additions of 10 μL and then shaken to mix. The reaction was allowed to proceed at room temperature for 60 minutes. A binding solution was then made from the kit components, comprised of 80% Solution A, 20% Solution B and binding reagent at a volume of 1/600 the total binding solution. The enzymatic reaction was stopped by addition of 60 μL of the binding solution to each well of the assay plate. The plates were sealed and shaken for 10 seconds. The plates were incubated at room temperature for one hour, then the parallel and perpendicular fluorescence was measured using a Tecan Genios Pro plate reader (Tecan, Switzerland). The apparent inhibition constants for the compounds against all 11 PDE's was determined from the parallel and perpendicular fluorescent readings as described for PDE10 FP assay using the following apparent KM values for each enzyme and substrate combination: PDE1A (FAM cGMP) 70 nM, human PDE2A1 (FAM cAMP) 10,000 nM, PDE3A (FAM cAMP) 50 nM, PDE4A1A (FAM cAMP) 1500 nM, PDE5A1 (FAM cGMP) 400 nM, PDE6C (FAM cGMP) 700 nM, PDE7A (FAM cAMP) 150 nM, PDE8A1 (FAM cAMP) 50 nM, PDE9A2 (FAM cGMP) 60 nM, PDE10A2 (FAM cAMP) 150 nM, PDE11A4 (FAM cAMP) 1000 nM. The intrinsic PDE2 inhibitory activity of a compound which may be used in accordance with the present invention may be determined by these assays.
# Sequence of human PDE2A1 (O00408 other isoform, or with tags, fused parts or gaps): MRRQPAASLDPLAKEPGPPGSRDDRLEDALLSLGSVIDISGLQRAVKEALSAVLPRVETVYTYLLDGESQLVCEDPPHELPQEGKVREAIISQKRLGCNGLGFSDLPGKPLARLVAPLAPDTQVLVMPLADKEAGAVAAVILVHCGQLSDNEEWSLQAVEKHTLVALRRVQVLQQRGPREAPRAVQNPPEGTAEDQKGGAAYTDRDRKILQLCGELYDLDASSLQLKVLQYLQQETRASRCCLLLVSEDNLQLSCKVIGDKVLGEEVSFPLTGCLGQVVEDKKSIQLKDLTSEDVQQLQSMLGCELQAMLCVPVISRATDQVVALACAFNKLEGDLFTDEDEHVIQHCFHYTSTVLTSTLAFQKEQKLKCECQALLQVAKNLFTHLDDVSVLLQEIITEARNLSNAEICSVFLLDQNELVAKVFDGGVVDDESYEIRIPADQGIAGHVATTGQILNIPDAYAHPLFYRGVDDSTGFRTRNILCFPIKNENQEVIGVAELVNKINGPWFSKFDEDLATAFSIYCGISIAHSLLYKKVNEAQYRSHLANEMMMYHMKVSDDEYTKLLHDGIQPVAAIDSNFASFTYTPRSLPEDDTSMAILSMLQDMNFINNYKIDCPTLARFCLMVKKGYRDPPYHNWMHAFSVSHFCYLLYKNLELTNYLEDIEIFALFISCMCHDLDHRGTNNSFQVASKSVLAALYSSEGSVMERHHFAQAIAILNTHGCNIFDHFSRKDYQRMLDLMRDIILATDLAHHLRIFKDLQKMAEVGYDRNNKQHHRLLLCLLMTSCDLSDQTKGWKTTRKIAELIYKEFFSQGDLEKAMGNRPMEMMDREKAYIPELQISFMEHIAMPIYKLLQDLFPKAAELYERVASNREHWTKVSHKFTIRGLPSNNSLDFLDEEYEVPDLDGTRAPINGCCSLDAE
row,inhibition at 3 µM,Structure (SMILES)
1,44%,"Cc1nc(-c2nnn([C@H](C)c3ccc(C(F)(F)F)cc3Cl)c2C)cc(=O)[nH]1 (mixture of isomers) [Example 44, (R)- and (S)-6-(1-(1-(2-Chloro-4-(trifluoromethyl)phenyl)-ethyl)-5-methyl-1H-1,2,3-triazol-4-yl)-2-methylpyrimidin-4(3H)-one]"
2,48%,"Cc1nc(-c2nnn3c2CCC[C@H]3c2ccc(C(F)(F)F)cc2)cc(=O)[nH]1 (mixture of isomers) [Example 47, (R)- and (S)-2-Methyl-6-(7-(4-(trifluoromethyl)phenyl)-4,5,6,7-tetrahydro-[1,2,3]triazolo[1,5-a]pyridin-3-yl)pyrimidin-4(3H)-one]"
3,27%,"Cc1nc(-c2nnc3n2CCC[C@H]3c2ccc(C(F)(F)F)cc2)cc(=O)[nH]1 (mixture of isomers) [Example 71, (R)- and (S)-2-Methyl-6-(8-(4-(trifluoromethyl)phenyl)-5,6,7,8-tetrahydro-[1,2,4]triazolo[4,3-a]pyridin-3-yl)pyrimidin-4(3H)-one]"

# Same assay, conditions: FAM cAMP 50 nM with 1000 nM cGMP
row,Structure (SMILES),pKi
1,"CCc1ccc(C(C)n2cc(-c3cc(=O)[nH]c(C)n3)nn2)c(Cl)c1 (single isomer, unassigned) [Example 20, (S)- or (R)-6-(1-(1-(2-chloro-4-ethylphenyl)ethyl)-1H-1,2,3-triazol-4-yl)-2-methylpyrimidin-4(3H)-one]",7.33
2,"Cc1nc(-c2cn(C(C)c3ccc(C(F)(F)F)c(F)c3F)nn2)cc(=O)[nH]1 (single isomer, unassigned) [Example 22, (S)- or (R)-6-(1-(1-(2,3-difluoro-4-(trifluoromethyl)phenyl)ethyl)-1H-1,2,3-triazol-4-yl)-2-methylpyrimidin-4(3H)-one]",7.75
3,"Cc1nc(-c2cn(C(C)c3cc(F)c(C(F)(F)F)cc3F)nn2)cc(=O)[nH]1 (single isomer, unassigned) [Example 23, (R)- or (S)-6-(1-(1-(2,5-difluoro-4-(triufluoromethyl)phenyl)ethyl)-1H-1,2,3-triazol-4-yl)-2-methylpyrimidin-4(3H)-one]",6.69
4,"Cc1nc(-c2cn(C(C)c3cc(F)c(C(F)(F)F)cc3F)nn2)cc(=O)[nH]1 (single isomer, unassigned) [Example 24, (S)- or (R)-6-(1-(1-(2,5-difluoro-4-(triufluoromethyl)phenyl)ethyl)-1H-1,2,3-triazol-4-yl)-2-methylpyrimidin-4(3H)-one]",7.41
5,"Cc1nc(-c2cn(C(C)c3ccc(C4CC4)cc3Cl)nn2)cc(=O)[nH]1 (single isomer, unassigned) [Example 25, (R)- or (S)-6-(1-(1-(2-chloro-4-cyclopropylphenyl)ethyl)-1H-1,2,3-triazol-4-yl)-2-methylpyrimidin-4(3H)-one]",7.23
6,"Cc1nc(-c2cn(C(C)c3ccc(C4CC4)cc3Cl)nn2)cc(=O)[nH]1 (single isomer, unassigned) [Example 26, (S)- or (R)-6-(1-(1-(2-chloro-4-cyclopropylphenyl)ethyl)-1H-1,2,3-triazol-4-yl)-2-methylpyrimidin-4(3H)-one]",8.49
7,"CCC(c1ccc(C(F)(F)F)cc1F)n1cc(-c2cc(=O)[nH]c(C)n2)nn1 (single isomer, unassigned) [Example 37, (R)- or (S)-6-(1-(1-(2-fluoro-4-(trifluoromethyl)phenyl)propyl-1H-1,2,3-triazol-4-yl)-2-methylpyrimidin-4(3H)-one]",7.96
8,"CCC(c1ccc(C(F)(F)F)cc1F)n1cc(-c2cc(=O)[nH]c(C)n2)nn1 (single isomer, unassigned) [Example 38, (S)- or (R)-6-(1-(1-(2-fluoro-4-(trifluoromethyl)phenyl)propyl)-1H-1,2,3-triazol-4-yl)-2-methylpyrimidin-4(3H)-one]",7.98
9,"Cc1nc(-c2cn(C(c3ccc(C(F)(F)F)cc3F)C(C)C)nn2)cc(=O)[nH]1 (single isomer, unassigned) [Example 39, (R)- or (S)-6-(1-(1-(2-fluoro-4-(trifluoromethyl)phenyl)-2-methylpropyl)-1H-1,2,3-triazol-4-yl)-2-methylpyrimidin-4(3H)-one]",8.14

# Further lines, results first:
row,pKi,Structure (SMILES)
1,7.44,"Cc1nc(-c2cnn([C@H](C)c3ccc(C(F)(F)F)cc3Cl)n2)cc(=O)[nH]1 (single isomer, unassigned) [Example 1]"
2,~5.89,"Cc1nc(-c2cnn([C@H](C)c3ccc(C(F)(F)F)cc3Cl)n2)cc(=O)[nH]1 (single isomer, unassigned) [Example 2]"
3,6.95,"Cc1nc(-c2cnn(C(C)c3ccc(C(F)(F)F)cc3F)n2)cc(=O)[nH]1 (single isomer, unassigned) [Example 3, (R)- or (S)-6-(2-(1-(2-fluoro-4-(trifluoromethyl)phenyl)ethyl)-2H-1,2,3-triazol-4-yl)-2-metylpyrimidin-4(3H)-one]"
4,5.99,"Cc1nc(-c2cnn(C(C)c3ccc(C(F)(F)F)cc3F)n2)cc(=O)[nH]1 (single isomer, unassigned) [Example 4, (S)- or (R)-6-(2-(1-(2-fluoro-4-(trifluoromethyl)phenyl)ethyl)-2H-1,2,3-triazol-4-yl)-2-metylpyrimidin-4(3H)-one]"
5,7.28,"Cc1nc(-c2cnn(C(C)c3ccc(C(F)(F)F)cc3C)n2)cc(=O)[nH]1 (single isomer, unassigned) [Example 5, (R)- or (S)-2-methyl-6-(2-(1-(2-methyl-4-(trifluoromethyl)phenyl)ethyl)-2H-1,2,3-triazol-4-yl)pyrimidin-4(3H)-one]"
6,~5.72,"Cc1nc(-c2cnn(C(C)c3ccc(C(F)(F)F)cc3C)n2)cc(=O)[nH]1 (single isomer, unassigned) [Example 6, (S)- or (R)-2-methyl-6-(2-(1-(2-methyl-4-(trifluoromethyl)phenyl)ethyl)-2H-1,2,3-triazol-4-yl)pyrimidin-4(3H)-one]"
7,7.22,"CCc1ccc(C(C)n2ncc(-c3cc(=O)[nH]c(C)n3)n2)c(Cl)c1 (single isomer, unassigned) [Example 7, (R)- or (S)-6-(2-(1-(2-chloro-4-ethylphenyl)ethyl)-2H-1,2,3-triazol-4-yl)-2-methylpyrimidin-4(3H)-one]"
8,~5.81,"CCc1ccc(C(C)n2ncc(-c3cc(=O)[nH]c(C)n3)n2)c(Cl)c1 (single isomer, unassigned) [Example 8, (S)- or (R)-6-(2-(1-(2-chloro-4-ethylphenyl)ethyl)-2H-1,2,3-triazol-4-yl)-2-methylpyrimidin-4(3H)-one]"
9,6.88,"Cc1nc(-c2cn([C@H](C)c3ccc(C(F)(F)F)cc3C)nn2)cc(=O)[nH]1 (single isomer, unassigned) [Example 10]"
10,7.33,"Cc1nc(-c2cn(C(C)c3ccc(C(F)(F)F)cc3F)nn2)cc(=O)[nH]1 (single isomer, unassigned) [Example 27, (R)- or (S)-6-(1-(1-(2-fluoro-4-(trifluoromethyl)phenyl)ethyl)-1H-1,2,3-triazol-4-yl)-2-methylpyrimidin-4(3H)-one]"
11,7.38,"Cc1nc(-c2cn([C@@H](C)c3ccc(C(F)(F)F)cc3Cl)nn2)cc(=O)[nH]1 (single isomer, unassigned) [Example 35]"
12,8.77,"Cc1nc(-c2cn([C@@H](C)c3ccc(C(F)(F)F)cc3Cl)nn2)cc(=O)[nH]1 (single isomer, unassigned) [Example 36]"
13,7.65,"Cc1nc(-c2cn(C(c3ccc(C(F)(F)F)cc3F)C(C)C)nn2)cc(=O)[nH]1 (single isomer, unassigned) [Example 40, (S)- or (R)-6-(1-(1-(2-fluoro-4-(trifluoromethyl)phenyl)-2-methylpropyl)-1H-1,2,3-triazol-4-yl)-2-methylpyrimidin-4(3H)-one]"
